Measurements taken from patent publication US12662481B2, “Substituted 2-morpholinopyridine derivatives as ATR kinase inhibitors” (Repare Therapeutics Inc., priority 2019, dated 2026).
Like-named read-outs stand apart in the source and are kept apart here.

What was measured:
ATR/ATRIP = ATR/ATRIP (Homo sapiens, UniProt Q13535); experiment: ATR/ATRIP enzymatic assay (AlphaScreen, phosphorylation of p53)
Method: Detection of ATR kinase activity utilized the AlphaScreen system to measure the phosphorylation of the substrate protein p53. […] Plates were incubated at room temperature in the dark for 4 hours and read on a BMG Polarstar using AlphaScreen dedicated filters. […] IC50 values were determined using a 4-parameter fit algorithm.

[1] = system: ATR (CHK1 phosphorylation at Ser345 in HeLa S3 cells); experiment: ATR assay in HeLa S3 cells (CHK1 p-Ser345 AlphaScreen SureFire, gemcitabine); type: cell-based; conditions: HeLa S3 whole cell assay, 3.5 to 4 hours
Method: Media was then replaced by 20 μL per well Opti-MEM no phenol red and 5 μL of serial diluted compounds were added to the assay plate for a final DMSO concentration of 0.5%. […] The plate was incubated at 37° C., 5% CO2 for 3.5 to 4 hours.

[2] = Homo sapiens, gemcitabine 1.5 μM

ATR/ATRIP, sequence (Q13535 whole entry): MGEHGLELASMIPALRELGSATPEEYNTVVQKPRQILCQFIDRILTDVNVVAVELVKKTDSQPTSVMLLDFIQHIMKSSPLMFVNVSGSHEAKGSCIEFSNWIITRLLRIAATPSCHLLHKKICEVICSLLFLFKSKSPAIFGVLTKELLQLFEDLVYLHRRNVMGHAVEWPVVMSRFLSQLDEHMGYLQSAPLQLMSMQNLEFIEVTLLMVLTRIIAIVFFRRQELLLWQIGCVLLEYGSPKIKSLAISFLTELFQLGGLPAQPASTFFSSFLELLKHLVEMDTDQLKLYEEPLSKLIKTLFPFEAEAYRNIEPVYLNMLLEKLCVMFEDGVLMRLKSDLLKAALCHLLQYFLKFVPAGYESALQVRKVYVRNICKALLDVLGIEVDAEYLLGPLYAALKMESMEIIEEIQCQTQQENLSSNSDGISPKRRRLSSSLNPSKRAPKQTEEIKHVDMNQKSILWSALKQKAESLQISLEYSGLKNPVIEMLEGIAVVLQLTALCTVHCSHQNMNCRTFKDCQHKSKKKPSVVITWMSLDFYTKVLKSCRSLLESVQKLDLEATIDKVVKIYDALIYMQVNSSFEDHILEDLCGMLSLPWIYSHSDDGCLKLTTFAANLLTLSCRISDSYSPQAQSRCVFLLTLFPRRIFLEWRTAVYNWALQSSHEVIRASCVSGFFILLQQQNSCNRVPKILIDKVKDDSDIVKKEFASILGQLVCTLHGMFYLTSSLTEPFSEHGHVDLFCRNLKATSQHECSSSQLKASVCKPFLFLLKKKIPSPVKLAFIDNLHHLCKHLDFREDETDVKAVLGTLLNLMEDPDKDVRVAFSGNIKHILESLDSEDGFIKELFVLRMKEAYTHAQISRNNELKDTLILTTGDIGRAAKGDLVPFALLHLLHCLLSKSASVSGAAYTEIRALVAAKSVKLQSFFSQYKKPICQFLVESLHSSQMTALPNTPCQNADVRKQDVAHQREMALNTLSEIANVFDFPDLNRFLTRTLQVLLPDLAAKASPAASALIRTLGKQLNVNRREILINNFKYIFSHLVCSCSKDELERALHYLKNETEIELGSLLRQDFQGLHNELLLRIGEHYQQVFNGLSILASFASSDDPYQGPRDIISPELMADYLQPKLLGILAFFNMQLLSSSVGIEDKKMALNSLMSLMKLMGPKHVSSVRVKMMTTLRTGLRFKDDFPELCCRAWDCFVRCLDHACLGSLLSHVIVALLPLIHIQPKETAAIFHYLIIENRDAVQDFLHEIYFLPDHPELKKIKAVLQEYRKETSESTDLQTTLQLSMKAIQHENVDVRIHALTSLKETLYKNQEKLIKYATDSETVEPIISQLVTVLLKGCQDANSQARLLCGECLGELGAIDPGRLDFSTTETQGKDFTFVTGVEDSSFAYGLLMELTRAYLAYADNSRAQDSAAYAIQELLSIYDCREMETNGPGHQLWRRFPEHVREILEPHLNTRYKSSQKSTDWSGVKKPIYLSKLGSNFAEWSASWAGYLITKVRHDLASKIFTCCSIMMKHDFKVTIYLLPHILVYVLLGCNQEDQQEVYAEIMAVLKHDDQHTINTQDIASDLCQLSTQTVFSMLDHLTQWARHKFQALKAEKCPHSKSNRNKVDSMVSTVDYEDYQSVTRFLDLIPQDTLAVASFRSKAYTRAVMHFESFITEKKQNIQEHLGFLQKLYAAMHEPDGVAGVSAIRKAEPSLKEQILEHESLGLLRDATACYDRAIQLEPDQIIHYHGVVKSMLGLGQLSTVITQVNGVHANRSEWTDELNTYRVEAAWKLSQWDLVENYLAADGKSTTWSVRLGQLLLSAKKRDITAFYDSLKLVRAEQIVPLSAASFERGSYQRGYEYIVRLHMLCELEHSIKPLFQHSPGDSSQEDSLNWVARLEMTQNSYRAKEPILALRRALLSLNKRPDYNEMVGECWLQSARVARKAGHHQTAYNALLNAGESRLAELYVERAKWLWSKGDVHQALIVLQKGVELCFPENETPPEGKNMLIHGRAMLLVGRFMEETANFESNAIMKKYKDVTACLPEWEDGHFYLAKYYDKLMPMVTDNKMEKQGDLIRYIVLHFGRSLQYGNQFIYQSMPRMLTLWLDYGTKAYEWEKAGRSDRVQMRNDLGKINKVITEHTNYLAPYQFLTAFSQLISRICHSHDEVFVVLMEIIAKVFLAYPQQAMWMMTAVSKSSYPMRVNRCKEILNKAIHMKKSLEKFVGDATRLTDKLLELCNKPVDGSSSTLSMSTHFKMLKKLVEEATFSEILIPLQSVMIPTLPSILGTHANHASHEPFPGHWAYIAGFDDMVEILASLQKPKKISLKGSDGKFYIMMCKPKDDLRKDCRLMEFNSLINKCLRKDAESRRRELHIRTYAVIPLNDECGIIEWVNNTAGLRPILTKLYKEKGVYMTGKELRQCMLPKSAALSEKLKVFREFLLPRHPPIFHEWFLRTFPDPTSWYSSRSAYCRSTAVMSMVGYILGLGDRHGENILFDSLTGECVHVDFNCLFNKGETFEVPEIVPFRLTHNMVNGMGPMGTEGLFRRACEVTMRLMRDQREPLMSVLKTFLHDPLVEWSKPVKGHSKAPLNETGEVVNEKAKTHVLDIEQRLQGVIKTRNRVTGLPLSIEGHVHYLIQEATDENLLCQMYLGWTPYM
ATR/ATRIP, sequence (Q8WXE1 whole entry partner): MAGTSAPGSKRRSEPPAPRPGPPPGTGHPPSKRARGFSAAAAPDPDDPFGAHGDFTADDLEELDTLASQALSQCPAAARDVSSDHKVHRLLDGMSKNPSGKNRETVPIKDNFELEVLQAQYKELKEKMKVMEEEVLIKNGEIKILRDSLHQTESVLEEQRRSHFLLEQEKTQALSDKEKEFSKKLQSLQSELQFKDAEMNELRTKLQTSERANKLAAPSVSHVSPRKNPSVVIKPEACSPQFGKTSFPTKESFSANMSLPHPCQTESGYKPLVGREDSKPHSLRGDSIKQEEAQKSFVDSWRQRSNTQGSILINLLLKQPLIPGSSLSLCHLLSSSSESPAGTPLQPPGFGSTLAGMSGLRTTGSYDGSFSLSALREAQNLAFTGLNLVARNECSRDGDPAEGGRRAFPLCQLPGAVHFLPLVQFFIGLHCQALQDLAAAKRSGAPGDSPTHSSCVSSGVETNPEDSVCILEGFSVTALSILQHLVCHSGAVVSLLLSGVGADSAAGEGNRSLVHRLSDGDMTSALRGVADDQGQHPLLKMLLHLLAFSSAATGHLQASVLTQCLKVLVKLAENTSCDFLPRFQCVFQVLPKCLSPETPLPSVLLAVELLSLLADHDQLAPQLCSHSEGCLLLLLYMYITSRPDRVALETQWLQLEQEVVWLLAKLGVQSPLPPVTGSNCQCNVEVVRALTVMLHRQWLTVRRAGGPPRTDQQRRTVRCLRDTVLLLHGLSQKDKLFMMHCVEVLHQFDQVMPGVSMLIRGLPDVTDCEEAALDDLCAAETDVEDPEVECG

Structure (SMILES) | IC50 [1, 2] [nM] | further results
Cc1ccncc1-c1cc(N2CCOC[C@H]2C)nc2c1ccn2-c1cc[nH]n1 [Compound 9] | – | IC50 (ATR/ATRIP): 371 nM
C[C@@H]1COCCN1c1cc(-c2nncs2)c2cnn(-c3cc[nH]n3)c2n1 [Compound 33] | – | IC50 (ATR/ATRIP): 154 nM
CC(C#N)c1cc(N2CCOC[C@H]2C)nc2c1cnn2-c1cc[nH]n1 (some centres unmarked) [Compound 47] | – | IC50 (ATR/ATRIP; read-out: ATR IC50, recombinant ATR/ATRIP 0.63 nM, 25 nM GST-p53, 3 μM ATP, 1 hour room temperature): 12 nM
C[C@@H]1COCCN1c1cc([C@]2(O)C[C@H]3CC[C@@H](C2)O3)c2cnn(-c3cc[nH]n3)c2n1 [Compound 121] | 0.9 | –
C[C@@H]1COCCN1c1cc(-c2ccccc2S(N)(=O)=O)c2cnn(-c3cc[nH]n3)c2n1 [Compound 126, (R)-2-(6-(3-methylmorpholino)-1-(1H-pyrazol-3-yl)-1H-pyrazolo[3,4-b]pyridin-4-yl)benzenesulfonamide] | 17 | –
C[C@@H]1COCCN1c1cc(N2CCOCC2=O)c2cnn(-c3cc[nH]n3)c2n1 [Compound 134] | 41 | –
COC1(c2cc(N3CCOC[C@H]3C)nc3c2cnn3-c2cc[nH]n2)CCSCC1 [Compound 147] | 0.8 | –
C[C@@H]1COCCN1c1cc(-c2cccnc2C(F)(F)F)c2c(=O)[nH]n(-c3ccn[nH]3)c2n1 [Compound 151] | – | IC50 ([1]; gemcitabine […]): 9.1 nM
